Key:
[1] = molecular target: T1, A2A receptor (Homo sapiens, UniProt P29274); assay: A2aR antagonism IC50, cAMP TR-FRET in HEK-293 cells, high concentration of adenosine (30 μM); assay type: cell-based; conditions: HEK-293 cells expressing A2A receptor; agonist adenosine 30 μM; 2% HSA; inhibition of cAMP; read-out: A2AR IC50 (nM) (@30 μM Adenosine);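 note: compounds added 10 min before adenosine, then 30 min stimulation at room temperature in buffer with 100 µM rolipram and 30 µM EHNA, signal read 1 h after detection reagents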
T1 construct: host or cells: HEK-293
Experimental: (§1) A Time-Resolved Fluorescence Energy Transfer (TR-FRET) assay was used to show the inhibition of this cAMP production in HEK cells upon treatment with compounds of the Formula I of the present disclosure.
(§2) HEK-293 cells expressing A2A receptor (#ES-011-C) or A2B receptor (#ES 013-C) were obtained from PerkinElmer. Cells were maintained in DMEM medium supplemented with 10% FBS and 200 μg/mL of G418 at 37° C. and 5% CO2. The cells were cultured in antibiotic free medium for a period of 16-20 hours prior to the assay. All subsequent steps of the assay are performed at room temperature (22-24° C.). […] About 1500 cells per well were pre-incubated for 10 minutes with the compounds of the present invention before adding the agonist Adenosine at a high concentration (30 μM) for a total stimulation time of 30 minutes. […] The assays were conducted in a stimulation buffer containing 1×DMEM, 5 mM HEPES, 2% Human serum albumin (HSA), 100 μM Rolipram and 30 μM erythro-9-(2-hydroxy-3-nonyl) adenine (EHNA). Serial dilutions of compounds were made in stimulation buffer to achieve a final concentration of high micromolar in a reaction volume of 10 μL. The total reaction volume was 10 μL (5 μL of cells, 2.5 μL of antagonist and 2.5 μL of agonist). […] The stimulation was ended, and the reaction completed by adding 5 μL of 4× Eu-cAMP tracer working solution and 5 μL of 4× ULight-anti-cAMP working solution. The TR FRET signal was measured after 1-hour incubation using a Tecan M1000 or a PerkinElmer Victor Nivo plate reader.

[2] = molecular target: T2, A2B receptor (Homo sapiens, UniProt P29275); assay: A2bR antagonism IC50, cAMP TR-FRET in HEK-293 cells, high concentration of adenosine (30 μM); conditions: A2BR IC50 (nM) (@30 μM Adenosine), HEK-293 cells expressing A2B receptor; agonist adenosine 30 μM; 2% HSA; inhibition of cAMP;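 note: compounds preincubated 10 min with cells, then adenosine stimulation 30 min at room temperature in buffer with Rolipram 100 µM and EHNA 30 µM, TR-FRET read after 1 h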
T2 sequence (P29275 1-332): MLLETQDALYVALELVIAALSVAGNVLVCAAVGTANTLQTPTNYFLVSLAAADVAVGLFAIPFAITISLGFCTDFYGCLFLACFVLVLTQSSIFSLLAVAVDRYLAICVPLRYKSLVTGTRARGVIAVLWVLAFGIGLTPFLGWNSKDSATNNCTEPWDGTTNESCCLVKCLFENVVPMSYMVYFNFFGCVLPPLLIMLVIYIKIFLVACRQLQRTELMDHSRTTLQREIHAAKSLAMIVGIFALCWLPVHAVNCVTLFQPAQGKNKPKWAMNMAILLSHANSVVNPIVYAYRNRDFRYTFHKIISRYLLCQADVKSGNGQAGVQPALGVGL
Experimental: as §1, §2

T1 sequence (P29274 whole entry): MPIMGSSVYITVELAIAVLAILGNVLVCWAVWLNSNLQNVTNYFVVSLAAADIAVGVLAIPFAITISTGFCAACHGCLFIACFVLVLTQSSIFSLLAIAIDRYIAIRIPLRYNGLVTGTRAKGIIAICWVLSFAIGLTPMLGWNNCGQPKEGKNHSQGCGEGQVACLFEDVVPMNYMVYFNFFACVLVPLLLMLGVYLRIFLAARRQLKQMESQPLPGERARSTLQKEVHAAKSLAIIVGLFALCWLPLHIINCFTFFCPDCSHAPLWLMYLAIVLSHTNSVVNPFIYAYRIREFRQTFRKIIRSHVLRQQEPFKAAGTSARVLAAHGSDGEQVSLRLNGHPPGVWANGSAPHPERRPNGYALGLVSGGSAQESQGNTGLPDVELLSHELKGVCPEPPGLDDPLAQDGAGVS

| Structure (SMILES) | IC50 [1] | IC50 [2] |
| --- | --- | --- |
| Cc1nn2c(N)c(C#N)c(NCCc3ccn(C4COCC4CO)n3)nc2c1Cl (centres unmarked) [Example 127, 7-amino-3-chloro-5-((2-(1-(4-(hydroxymethyl)tetrahydrofuran-3-yl)-1H-pyrazol-3-yl)ethyl)amino)-2-methylpyrazolo[1,5-a] pyrimidine-6-carbonitrile] | 161 nM | 2170 nM |
| CCc1c(C)nn2c(N)c(C#N)c(NCCc3ccn(C4CC(CO)C4)n3)nc12 (centres unmarked) [Example 123, 7-amino-3-ethyl-5-((2-(1-(3-(hydroxymethyl)cyclobutyl)-1H-pyrazol-3-yl)ethyl)amino)-2-methylpyrazolo[1,5-a]pyrimidine-6-carbonitrile] | 405 nM | 1580 nM |
| Cc1nn2c(N)c(C#N)c(NCCc3ccn(CC4CC(O)C4)n3)nc2c1Cl (single isomer, unassigned; (+)) [Example 83, (+)-7-amino-3-chloro-5-((2-(1-((3-hydroxycyclobutyl)methyl)-1H-pyrazol-3-yl)ethyl)amino)-2-methylpyrazolo[1,5-a]pyrimidine-6-carbonitrile] | 109 nM | 2650 nM |
| CCc1c(C)nn2c(N)c(C#N)c(NCCc3ccn(C4COCC4CO)n3)nc12 (racemic) [Example 121, (+−)-7-amino-3-ethyl-5-((2-(1-(4-(hydroxymethyl)tetrahydrofuran-3-yl)-1H-pyrazol-3-yl)ethyl)amino)-2-methyl pyrazolo[1,5-a]pyrimidine-6-carbonitrile] | 245 nM | 895 nM |
| Cc1nn2c(N)c(C#N)c(NCCc3cccn(C)c3=O)nc2c1Cl [Example 87, 7-amino-3-chloro-2-methyl-5-((2-(1-methyl-2-oxo-1,2-dihydropyridin 3-yl)ethyl)amino) pyrazolo[1,5-a]pyrimidine-6-carbonitrile] | 80 nM | 1760 nM |
| Cc1nn2c(N)c(C#N)c(NCCc3cccc(CO)n3)nc2c1Br [Example 72, 7-amino-3-bromo-5-((2-(6-(hydroxymethyl)pyridine-2-yl)ethyl)amino)-2-methylpyrazolo[1,5-a]pyrimidine-6-carbonitrile] | 362 nM | 3120 nM |
| Cc1nn2c(N)c(C#N)c(NCCc3ccn(C4(CO)CC4)n3)nc2c1C1CC1 [Example 101, 7-amino-3-cyclopropyl-5-((2-(1-(1-(hydroxymethyl)cyclopropyl)-1H-pyrazol-3-yl)ethyl)amino)-2-methylpyrazolo[1,5-a]pyrimidine-6-carbonitrile] | 2100 nM | > 15000 nM |
| CCc1c(C)nn2c(N)c(C#N)c(NCCc3ccn(CCCSC)n3)nc12 [Example 161, 7-amino-3-ethyl-2-methyl-5-((2-(1-(3-(methylthio)propyl)-1H-pyrazol-3-yl)ethyl)amino)pyrazolo[1,5-a]pyrimidine-6-carbonitrile] | 2770 nM | 3970 nM |
| CCc1c(C(F)F)nn2c(N)c(C#N)c(NCCc3ccn(C4CCC4CO)n3)nc12 (centres unmarked) [Example 102, 7-amino-2-(difluoromethyl)-3-ethyl-5-((2-(1-(2-(hydroxymethyl)cyclobutyl)-1H-pyrazol-3-yl)ethyl)amino) pyrazolo[1,5-a]pyrimidine-6-carbonitrile] | 804 nM | 8300 nM |
| CCc1c(C)nn2c(N)c(C#N)c(NCCc3cccn(CCCSC)c3=O)nc12 [Example 153, 7-amino-3-ethyl-2-methyl-5-((2-(1-(3-(methylthio)propyl)-2-oxo-1,2-dihydropyridin-3-yl)ethyl)amino)pyrazolo[1,5-a]pyrimidine-6-carbonitrile] | 195 nM | 1190 nM |
| CCc1c(C)nn2c(N)c(C#N)c(NCCc3cccc(CCO)n3)nc12 [Example 139, 7-amino-3-ethyl-5-((2-(6-(2-hydroxyethyl)pyridine-2-yl)ethyl)amino)-2-methylpyrazolo[1,5-a]pyrimidine-6-carbonitrile] | 165 nM | 482 nM |
| Cc1cccc(CCNc2nc3c(Cl)c(C)nn3c(N)c2C#N)n1 [Example 119, 7-amino-3-chloro-2-methyl-5-((2-(6-methylpyridin-2-yl)ethyl)amino) pyrazolo[1,5-a]pyrimidine-6-carbonitrile] | 260 nM | 3410 nM |
| CCCc1c(C)nn2c(N)c(C#N)c(NCCc3ccn(C4(CO)CC4)n3)nc12 [Example 158, 7-amino-5-((2-(1-(1-(hydroxymethyl)cyclopropyl)-1H-pyrazol-3-yl)ethyl)amino)-2-methyl-3-propylpyrazolo[1,5-a]pyrimidine-6-carbonitrile] | 805 nM | 3350 nM |
| CCc1cccc(CCNc2nc3c(Cl)c(C)nn3c(N)c2C#N)n1 [Example 120, 7-amino-3-chloro-5-((2-(6-ethylpyridin-2-yl)ethyl)amino)-2-methylpyrazolo[1,5-a]pyrimidine-6-carbonitrile] | 529 nM | 8630 nM |
| Cc1nn2c(N)c(C#N)c(NCCc3ccn(C4CCC4CO)n3)nc2c1C (racemic) [Example 103, (+−)-7-amino-5-((2-(1-(2-(hydroxymethyl)cyclobutyl)-1H-pyrazol-3-yl)ethyl)amino)-2,3-dimethylpyrazolo[1,5-a] pyrimidine-6-carbonitrile] | 100 nM | 2590 nM |
| Cc1nn2c(N)c(C#N)c(NCCc3ccn(C4(CO)CC4)n3)nc2c1CC1CCC1 [Example 137, 7-amino-3-(cyclobutylmethyl)-5-((2-(1-(1-(hydroxymethyl)cyclopropyl)-1H-pyrazol-3-yl)ethyl)amino)-2-methylpyrazolo[1,5-a]pyrimidine-6-carbonitrile] | 820 nM | > 15000 nM |
| CCc1c(C)nn2c(N)c(C#N)c(NCCc3cccn(CCCNC(C)=O)c3=O)nc12 [Example 145, N-(3-(3-(2-((7-amino-6-cyano-3-ethyl-2-methylpyrazolo[1,5-a]pyrimidin-5-yl)amino)ethyl)-2-oxopyridin-1(2H)-yl)propyl) acetamide] | 294 nM | 1130 nM |

Further lines, results first:

| IC50 [1] | IC50 [2] | Structure (SMILES) |
| --- | --- | --- |
| 1050 nM | 1540 nM | CCc1c(C)nn2c(N)c(C#N)c(NCCc3cccn(CCC[S+](C)[O-])c3=O)nc12 (single isomer, unassigned; (-)) [Example 154a, (−)-7-amino-3-ethyl-2-methyl-5-((2-(1-(3-(methylsulfinyl)propyl)-2-oxo-1,2-dihydropyridin-3-yl)ethyl)amino) pyrazolo[1,5-a]pyrimidine-6-carbonitrile] |
| 139 nM | 911 nM | CCc1c(C)nn2c(N)c(C#N)c(NCCc3cccc(C(C)O)n3)nc12 (single isomer, unassigned; (+)) [Example 159a, (+)-7-amino-3-ethyl-5-((2-(6-(1-hydroxyethyl)pyridin-2-yl)ethyl)amino)-2-methylpyrazolo[1,5-a]pyrimidine-6-carbonitrile] |
| 254 nM | 815 nM | CCc1c(C)nn2c(N)c(C#N)c(NCCc3cccn(CC[S+](C)[O-])c3=O)nc12 (single isomer, unassigned; (-)) [Example 144b, (−)7-amino-3-ethyl-2-methyl-5-((2-(1-(2-(methylsulfinyl)ethyl)-2-oxo-1,2-dihydropyridin-3-yl)ethyl)amino) pyrazolo[1,5-a]pyrimidine-6-carbonitrile] |
| 1540 nM | 9160 nM | CCCc1c(C)nn2c(N)c(C#N)c(NCCc3ccn(C4CCC4CO)n3)nc12 (single isomer, unassigned; (-)) [Example 165b, (−)-7-amino-5-((2-(1-(2-(hydroxymethyl)cyclobutyl)-1H-pyrazol-3-yl)ethyl)amino)-2-methyl-3-propylpyrazolo[1,5-a]pyrimidine-6-carbonitrile] |
| 1880 nM | 5790 nM | CCc1c(C)nn2c(N)c(C#N)c(NCCc3ccn(CCC[S+](C)[O-])n3)nc12 (single isomer, unassigned; (-)) [Example 162a, (−)-7-amino-3-ethyl-2-methyl-5-((2-(1-(3-(methylsulfinyl)propyl)-1H-pyrazol-3-yl)ethyl)amino)pyrazolo[1,5-a]pyrimidine-6-carbonitrile] |
| 579 nM | 1930 nM | CCCc1c(C)nn2c(N)c(C#N)c(NCCc3ccn(C4COCC4CO)n3)nc12 (single isomer, unassigned; (+)) [Example 160a, (+) 7-amino-5-((2-(1-(4-(hydroxymethyl)tetrahydrofuran-3-yl)-1H-pyrazol-3-yl)ethyl)amino)-2-methyl-3-propylpyrazolo[1,5-a]pyrimidine-6-carbonitrile] |
| 554 nM | 6690 nM | Cc1nn2c(N)c(C#N)c(NCCc3ccn(C4COCC4CO)n3)nc2c1C (single isomer, unassigned; (+)) [Example 133a, (+)-7-amino-5-((2-(1-(4-(hydroxymethyl)tetrahydrofuran-3-yl)-1H-pyrazol-3-yl)ethyl)amino)-2,3-dimethylpyrazolo[1,5-a]pyrimidine-6-carbonitrile] |
| 341 nM | 1250 nM | CCCc1c(C)nn2c(N)c(C#N)c(NCCc3ccn(C4COCC4CO)n3)nc12 (single isomer, unassigned; (-)) [Example 160b, (−) 7-amino-5-((2-(1-(4-(hydroxymethyl)tetrahydrofuran-3-yl)-1H-pyrazol-3-yl)ethyl)amino)-2-methyl-3-propylpyrazolo[1,5-a]pyrimidine-6-carbonitrile] |

Reference: patent US12577247B2 (BUGWORKS RESEARCH, INC., priority 2021, dated 2026)
